system: Plasmodium falciparum; test: Antimalarial activity against Plasmodium falciparum NF54; format: functional, organism-based; details: not given

Row | SMILES | IC50 [nM]
1 | CC1(OCc2ccccc2)CCC2CC1OO[C@@]2(C)CS(=O)(=O)c1ccccc1 (stereo partly drawn) | 6.5
2 | C[C@@H]1CC[C@H]2[C@@H](C)C(=O)O[C@@H]3O[C@@]4(C)CC[C@@H]1[C@]32OO4 [ARTEMISININ] | 8.9

system: Plasmodium falciparum; test: Antimalarial activity against chloroquine-resistant Plasmodium falciparum K1; format: functional, organism-based; details: not given

Row | SMILES | IC50 [nM]
3 | CC(=O)OC1(C)CCC2CC1OO[C@]2(/C=C\c1ccccc1)c1ccccc1 (stereo partly drawn) | 23

same assay, conditions: Plasmodium falciparum, K1

Row | SMILES | IC50 [nM]
4 | C[C@@H]1C(=O)C[C@H]2C[C@@H]1OO[C@@]2(C)/C=C\c1ccc(C(F)(F)F)cc1C(F)(F)F [ARTEFLENE] | 76
5 | CC(=O)OC1(C)CCC2CC1OO[C@@]2(CSc1ccccc1)c1ccccc1 (stereo partly drawn) | 124
6 | CC1(O)CCC2CC1OO[C@@]2(CSc1ccccc1)c1ccccc1 (stereo partly drawn) | 81
7 | CC1(O)CCC2CC1OO[C@]2(CS(=O)(=O)c1ccc(Cl)cc1)c1ccccc1 (stereo partly drawn) | 225
8 | O=C(CS(=O)(=O)c1ccccc1)c1ccccc1 | 1000
9 | CC1(O)CCC2CC1OO[C@@]2(CS(=O)(=O)c1ccccc1)c1ccccc1 (stereo partly drawn) | 92
10 | CC1(O)CCC2CC1OO[C@]2(CS(=O)(=O)c1ccccc1)c1ccccc1 (stereo partly drawn) | 230
11 | CC(=O)OC1(C)CCC2CC1OO[C@]2(CSc1ccccc1)c1ccccc1 (stereo partly drawn) | 164
12 | CC1(O)CCC2CC1OO[C@]2(CSc1ccccc1)c1ccccc1 (stereo partly drawn) | 298
13 | CC(=O)OC1(C)CCC2CC1OO[C@]2(/C=C\c1ccccc1)c1ccccc1 (stereo partly drawn) | 34
14 | CC1(O)CCC2CC1OO[C@@]2(CS(=O)(=O)c1ccc(Cl)cc1)c1ccccc1 (stereo partly drawn) | 107
15 | CC1(O)CCC2CC1OO[C@]2(CSc1ccc(Cl)cc1)c1ccccc1 (stereo partly drawn) | 247
16 | CC1(O)CCC2CC1OO[C@@]2(CSc1ccc(Cl)cc1)c1ccccc1 (stereo partly drawn) | 541
17 | CC(=O)OC1(C)CCC2CC1OO[C@@]2(CS(=O)(=O)c1ccccc1)c1ccccc1 (stereo partly drawn) | 42
18 | CC(=O)OC1(C)CCC2CC1OO[C@]2(CS(=O)(=O)c1ccccc1)c1ccccc1 (stereo partly drawn) | 72

Reference: ChEMBL document CHEMBL1148657, “Diels-Alder/thiol-olefin co-oxygenation approach to antimalarials incorporating the 2,3-dioxabicyclo[3.3.1]nonane pharmacophore” (Bioorg Med Chem Lett, 2006)
